Assays:
[1] = Inhibition of Tel-fused LYN expressed in mouse BAF3 cells
[2] = Inhibition of Tel-fused LCK expressed in mouse BAF3 cells
[3] = Inhibition of Tel-fused SRC expressed in mouse BAF3 cells
[4] = Inhibition of Tel-fused KDR expressed in mouse BAF3 cells

| IC50 [1] [nM] | IC50 [2] [nM] | IC50 [3] [nM] | IC50 [4] [nM] | Structure (SMILES) |
| --- | --- | --- | --- | --- |
| 82 | 32 | 490 | 280 | Cc1cccc(C(=O)Nc2ccc(C)c(Nc3nc4ccccc4n3-c3cc(N)ncn3)c2)c1 [N-(3-(1-(6-aminopyrimidin-4-yl)-1H-benzo[d]imidazol-2-ylamino)-4-methylphenyl)-3-methylbenzamide] |
| 5 | 4 | 4 | 4 | Cc1ccc(NC(=O)c2ccc(C(C)(C)C)s2)cc1Nc1nc2ccccc2n1-c1cc(N)ncn1 [N-(3-(1-(6-aminopyrimidin-4-yl)-1H-benzo[d]imidazol-2-ylamino)-4-methylphenyl)-5-tert-butylthiophene-2-carboxamide] |
| > 10000 | > 10000 | > 10000 | > 10000 | COc1cc(-n2c(Nc3cc(NC(=O)c4cccc(C(F)(F)F)c4)ccc3C)nc3ccccc32)ncn1 [N-(3-(1-(6-methoxypyrimidin-4-yl)-1H-benzo[d]imidazol-2-ylamino)-4-methylphenyl)-3-(trifluoromethyl)benzamide] |
| 1420 | 881 | 1380 | 1710 | Cc1ccc(NC(=O)c2cccc(C(F)(F)F)c2)cc1Nc1nc2ccccc2n1-c1cc(NC2CCN(C)CC2)ncn1 [N-(4-methyl-3-(1-(6-(1-methylpiperidin-4-ylamino)pyrimidin-4-yl)-1H-benzo[d]imidazol-2-ylamino)phenyl)-3-(trifluoromethyl)benzamide] |
| 204 | 56 | 918 | 605 | Cc1ccc(NC(=O)c2cccc(C(F)(F)F)c2)cc1Nc1nc2ccccc2n1-c1cc(NCCN2CCN(C)CC2)ncn1 [N-(4-methyl-3-(1-(6-(2-(4-methylpiperazin-1-yl)ethylamino)pyrimidin-4-yl)-1H-benzo[d]imidazol-2-ylamino)phenyl)-3-(trifluoromethyl)benzamide] |
| 259 | 171 | 524 | 549 | Cc1ccc(NC(=O)c2cccc(C(F)(F)F)c2)cc1Nc1nc2ccccc2n1-c1cc(NCCc2ccccn2)ncn1 [N-(4-methyl-3-(1-(6-(2-(pyridin-2-yl)ethylamino)pyrimidin-4-yl)-1H-benzo[d]imidazol-2-ylamino)phenyl)-3-(trifluoromethyl)benzamide] |
| 149 | 25 | 601 | 582 | Cc1ccc(NC(=O)c2cccc(C(F)(F)F)c2)cc1Nc1nc2ccccc2n1-c1cc(NCCCN2CCN(C)CC2)ncn1 [N-(4-methyl-3-(1-(6-(3-(4-methylpiperazin-1-yl)propylamino)pyrimidin-4-yl)-1H-benzo[d]imidazol-2-ylamino)phenyl)-3-(trifluoromethyl)benzamide] |
| 67 | 40 | 600 | 318 | Cc1ccc(NC(=O)c2cccc(C(F)(F)F)c2)cc1Nc1nc2ccccc2n1-c1cc(NCCCC2COCCN2)ncn1 (stereo not given) [N-(4-methyl-3-(1-(6-(3-(morpholin-3-yl)propylamino)pyrimidin-4-yl)-1H-benzo[d]imidazol-2-ylamino)phenyl)-3-(trifluoromethyl)benzamide] |
| > 10000 | > 10000 | > 10000 | > 10000 | Cc1ccc(NC(=O)c2cccc(C(F)(F)F)c2)cc1Nc1nc2ccccc2n1-c1cc(N2CCOCC2)ncn1 [N-(4-methyl-3-(1-(6-morpholinopyrimidin-4-yl)-1H-benzo[d]imidazol-2-ylamino)phenyl)-3-(trifluoromethyl)benzamide] |

| Structure (SMILES) | IC50 [1] [nM] | IC50 [2] [nM] | IC50 [3] [nM] | IC50 [4] [nM] |
| --- | --- | --- | --- | --- |
| Cc1ccc(NC(=O)c2cc(C3CC3)n[nH]2)cc1Nc1nc2ccccc2n1-c1cc(N)ncn1 [N-(3-(1-(6-aminopyrimidin-4-yl)-1H-benzo[d]imidazol-2-ylamino)-4-methylphenyl)-3-cyclopropyl-1H-pyrazole-5-carboxamide] | 96 | 50 | 56 | 48 |

— BindingDB's records for doi:10.1016/j.bmcl.2009.09.123 (Genomics Institute of The Novartis Research Foundation, 2009)
